Laboratory results published in PubChem BioAssay AID1508591.

Details: rat; liver microsomes; pH 7.4; 15.0 min; 1.0 µM

Structure (SMILES): CNC(=O)c1cc(Oc2ccc(NC(=O)Nc3cc(C(C)(C)C)nn3-c3ccc4ncccc4c3)c(F)c2)ccn1
- half-life: 6.64 min

Structure (SMILES): CC(C)CNC(=O)c1cn2cc(-c3ccccc3)sc2n1
- half-life: > 30 min

Structure (SMILES): O=c1c(-c2ccc(O)cc2)coc2cc(O)ccc12
- half-life: > 30 min

Structure (SMILES): Cc1c(C)n(Cc2ccc(-c3ccccc3C(=O)O)cc2)c2ccc(C(=O)N[C@@H](C)c3ccc([N+](=O)[O-])cc3)cc12
- half-life: > 30 min

Structure (SMILES): COc1ccccc1-c1nc(NCc2ccc(-c3cccnc3)cc2)c2ccccc2n1
- half-life: 4.45 min

Structure (SMILES): CCOc1ccc(CCNC(=O)c2cc3cnccc3n2Cc2cccc(C)c2)cc1OCC
- half-life: 6.9 min

Structure (SMILES): O=C(NCCc1nc2ccccc2n1CCO)C1CCCCC1
- half-life: 20.3 min

Structure (SMILES): COc1ccccc1CNc1ccc(S(=O)(=O)Nc2nccs2)cc1
- half-life: 2.8 min

Structure (SMILES): Cc1ccccc1C(=O)N1CCc2cc(-c3nc(NC(=O)Cc4ccccc4)sc3C)ccc21
- half-life: 24 min

Structure (SMILES): O=C(c1ccc2c(c1)OCO2)N1CCC(Cc2nc(-c3cnccn3)no2)CC1
- half-life: > 30 min

Structure (SMILES): COc1ccc2[nH]cc(CCNC(=O)c3cnn(-c4ccc(C)cc4)c3C3CCN(C(=O)OC(C)(C)C)CC3)c2c1
- half-life: 1.65 min

Structure (SMILES): CCOc1ccccc1C(=O)Nc1ccncc1C(=O)Nc1cccc(S(=O)(=O)C(F)(F)F)c1
- half-life: > 30 min

Structure (SMILES): COc1cc(C(=O)N2CCN(c3cc(Cl)ccc3Cl)CC2)cc(OC)c1OC
- half-life: 4.31 min

Structure (SMILES): COc1cccc(-c2cn3c(n2)sc2cc(C(=O)NCCc4ccc(OC)c(OC)c4)ccc23)c1
- half-life: 2.26 min

Structure (SMILES): COc1ccc(S(=O)(=O)N(CC(=O)Nc2ccc(C)cc2)c2ccc(C)cc2)cc1OC
- half-life: 3.28 min

Structure (SMILES): O=S(=O)(Nc1nccs1)c1ccc(NCc2cccc(F)c2O)cc1
- half-life: 16 min

Structure (SMILES): O=c1c2ccccc2nc(/C=C/c2cccnc2)n1Cc1ccccc1
- half-life: 8.99 min

Structure (SMILES): Cc1ccc(CNc2nc(-c3ccccc3C(F)(F)F)nc3ccccc23)s1
- half-life: 1.7 min

Structure (SMILES): CN(C(=O)CNC(=O)c1cc(F)ccc1OCC(=O)Nc1ccc(I)cc1)c1ccc(F)cc1
- half-life: 1.74 min

Structure (SMILES): CCOc1ccc(CCNC(=O)c2cc3ncccc3n2Cc2cccc(C)n2)cc1OCC
- half-life: 6.7 min

Structure (SMILES): CN(C)C(=O)c1cccc(-c2csc(N3CCC(C(N)=O)CC3)n2)c1
- half-life: > 30 min

Structure (SMILES): Cc1ccc(S(=O)(=O)Nc2ccccc2C(=O)Nc2cccc(-c3ccccc3)c2)cc1
- half-life: 3.5 min

Structure (SMILES): Cc1ccc(S(=O)(=O)Nc2cc(F)ccc2C(=O)Nc2nc(-c3ccccc3)cs2)cc1
- half-life: 5.6 min

Structure (SMILES): Cc1ccc(C)c(CN2CCC(CNC(=O)Nc3ccc(Br)cc3F)CC2)c1
- half-life: 3.58 min

Structure (SMILES): Cc1ccc(S(=O)(=O)Nc2ccc(Cl)cc2C(=O)Nc2nc(-c3ccccc3)cs2)cc1
- half-life: 3.4 min

Structure (SMILES): COC(=O)[C@@H]1C[C@H](OC(C)=O)C(=O)[C@H]2[C@@]1(C)CCC1C(=O)O[C@H](c3ccoc3)C[C@@]12C (some centres not stated)
- half-life: 9.8 min

Structure (SMILES): CCN1CCN(C(=O)CCCn2nc(C)c3c(C)n(-c4ccc(C)cc4)nc3c2=O)CC1
- half-life: 22.2 min

Structure (SMILES): O=C(Nc1cccnc1)c1cccs1
- half-life: > 30 min

Structure (SMILES): COCCNC(=O)c1ccc(-c2ccc(N3CCCCC3)nc2)cc1
- half-life: 3.26 min

Structure (SMILES): CCOc1ccc(CCNC(=O)c2ccnn2Cc2ccccn2)cc1OCC
- half-life: 5.6 min

Structure (SMILES): CS(=O)(=O)c1ccc(-c2csc(N3CCC(C(N)=O)CC3)n2)cc1
- half-life: > 30 min

Structure (SMILES): NC(=O)c1cccc(-c2cc(Nc3ccc(OC(F)(F)F)cc3)ncn2)c1
- half-life: > 30 min

Structure (SMILES): CCOc1ccc(CCNC(=O)c2cc3ccncc3n2Cc2cccc(C)n2)cc1OCC
- half-life: 29 min

Structure (SMILES): O=S(=O)(Nc1cnc2ccccc2c1)c1ccc(NCc2ccc(Br)cc2O)cc1
- half-life: 18 min

Structure (SMILES): Cc1sc2ncnc(Sc3nnnn3-c3ccccc3)c2c1-c1ccccc1
- half-life: 1.5 min

Structure (SMILES): Cc1nc([N+](=O)[O-])cn1-c1ccc([N+](=O)[O-])cc1
- half-life: > 30 min

Structure (SMILES): Cc1cc(C)nc(NC(=S)N2CCN(c3ccc(Cl)cc3[N+](=O)[O-])CC2)c1
- half-life: 15 min

Structure (SMILES): Cc1ccc(S(=O)(=O)Nc2ccc(C)cc2C(=O)Nc2nc(-c3ccccc3)cs2)cc1
- half-life: 3.7 min

Structure (SMILES): Cc1cnc(-c2ccccc2C(C)C)nc1NCc1ccc(-n2ccnn2)cc1
- half-life: 10.3 min

Structure (SMILES): CN(C)c1ccc(S(=O)(=O)N2CCCCC2)cc1NS(=O)(=O)c1ccc2ccccc2c1
- half-life: 1.34 min

Structure (SMILES): CCCC1=Nc2cc(C(=O)NC3CCCC3)ccc2Sc2ccc(C)cc21
- half-life: 1.41 min

Structure (SMILES): CCOc1ccc(CCNC(=O)c2cc3sccc3n2CCN(C)C)cc1OCC
- half-life: 1.6 min

Structure (SMILES): C[C@H]1CCC[C@H](O)CCC/C=C/c2cc(O)cc(O)c2C(=O)O1
- half-life: 15.2 min

Structure (SMILES): c1ccc2c(NC3CCCCC3)nc(-c3ccncc3)nc2c1
- half-life: 10 min

Structure (SMILES): CCc1ccc2oc(NC3=NC(c4[nH]ncc4Cl)C4=C(CCCC4=O)N3)nc2c1 (configuration not stated)
- half-life: 22 min

Structure (SMILES): Cc1ccc(S(=O)(=O)N[C@@H](Cc2ccccc2)C(=O)CCl)cc1
- half-life: 2.36 min

Structure (SMILES): CCc1cccc(C)c1Nc1c(-c2ccc(N(C)C)cc2)nc2ncccn12
- half-life: 4.23 min

Structure (SMILES): O=C(CNC12CC3CC(CC(C3)C1)C2)c1ccc(Cl)cc1
- half-life: 2.2 min

Structure (SMILES): O=C(O)CCNc1cc(N2CCc3ccccc3CC2)nc(-c2ccccn2)n1
- half-life: > 30 min

Structure (SMILES): COc1cccc(CNc2ccc(S(=O)(=O)Nc3nccs3)cc2)c1N
- half-life: > 30 min

Structure (SMILES): CCOC(=O)c1ccc(N2C(=O)c3n[nH]c(-c4cccs4)c3C2c2ccc(Cl)cc2Cl)cc1 (configuration not stated)
- half-life: 20.1 min

Structure (SMILES): COc1ccc(C(=O)Nc2nc(-c3ccccc3)cs2)c(NS(=O)(=O)c2ccc(C)cc2)c1
- half-life: 6.5 min

Structure (SMILES): O=C(Nc1nc(-c2ccccc2)cs1)c1ccncc1NS(=O)(=O)c1ccc(C(F)(F)F)cc1
- half-life: 20 min

Structure (SMILES): CCCSc1nc(N[C@@H]2C[C@H]2c2ccc(F)c(F)c2)c2nnn([C@@H]3C[C@H](OCCO)[C@@H](O)[C@H]3O)c2n1
- half-life: > 30 min

Structure (SMILES): CCOC(=O)c1[nH]c(C)c(CCC(=O)N2CCN(c3cccc(C)c3C)CC2)c1C
- half-life: 2.27 min

Structure (SMILES): CCOc1ccc(NC(=O)c2cccc(-n3cccc3)c2)cc1S(=O)(=O)N1CCOCC1
- half-life: 3.16 min

Structure (SMILES): c1cc(OCCN2CCCCC2)cc(-c2n[nH]c3ccc(-c4ncn[nH]4)cc23)c1
- half-life: > 30 min

Structure (SMILES): CC(=O)c1c(C)oc2ccc(N(C(=O)Oc3ccccc3)S(=O)(=O)c3ccccc3)cc12
- half-life: 1.48 min

Structure (SMILES): CCOc1ccc(C2C(C(=O)Nc3ccccc3OC)=C(C)Nc3c(C(=O)Nc4cccc(C)c4)cnn32)cc1 (configuration not stated)
- half-life: 4.18 min

Structure (SMILES): COc1ccc(-c2cc(C)nc3c(-c4ccc(OC)c(OC)c4)c(C)nn23)cc1
- half-life: > 30 min

Structure (SMILES): Cc1ccc(Nc2nc(C)c(NC(=O)c3ccc(C)cc3)c(Nc3ccc(C)cc3)n2)cc1
- half-life: 20.1 min

Structure (SMILES): COc1ccc(-n2nc(C3CCCN(C(=O)c4ccccc4F)C3)[nH]c2=O)cc1 (configuration not stated)
- half-life: > 30 min

Structure (SMILES): O=S(=O)(Nc1ccc(-c2ccccc2)cc1)c1ccc(NCc2cccc(Cl)c2O)cc1
- half-life: 5.6 min

Structure (SMILES): O=C(Nc1nc(-c2ccccc2)cs1)c1ccncc1NS(=O)(=O)c1ccc(Cl)cc1
- half-life: 18.2 min

Structure (SMILES): CCN1CCCC1CNCc1ccccc1 (configuration not stated)
- half-life: 2.5 min

Structure (SMILES): O=C(NCCCc1ccccc1)c1cccc(-c2cc(O)c3ncccc3c2)c1
- half-life: 1.65 min

Structure (SMILES): CCc1oc2ccccc2c1C(=O)c1cc(Br)c(O)c(Br)c1
- half-life: 9.75 min

Structure (SMILES): COc1ccc(Cn2c(C(=O)O)c(CNCc3cccc(OC)c3)c3ccc(C)cc32)cc1
- half-life: 11.6 min

Structure (SMILES): O=c1n(-c2ccc(Cl)cc2)nc2n1CCN(Cc1ccc(C(F)(F)F)cc1)C2
- half-life: > 30 min

Structure (SMILES): NC1CCC(Nc2nc(Nc3ccc(C(=O)N4CCCCC4)cc3)c3ncn(-c4cccc(F)c4)c3n2)CC1 (configuration not stated)
- half-life: 23 min

Structure (SMILES): CCOC(=O)c1c(C)c(-c2ccccc2)n(CC(=O)NCc2ccccc2)c1C
- half-life: 2.28 min

Structure (SMILES): N#Cc1cccc(NC(=O)c2sc3nc4c(cc3c2N)N2CCC4CC2)c1
- half-life: 25.6 min

Structure (SMILES): O=C(NC1CCCCC1)N1Cc2[nH]cnc2C[C@H]1c1nc(-c2cccc([N+](=O)[O-])c2)no1
- half-life: 10.3 min

Structure (SMILES): Nc1nccc2c1ncn2[C@@H]1C=C(CO)[C@@H](O)[C@H]1O
- half-life: > 30 min

Structure (SMILES): Cc1nc2c(-c3ccccc3)cnn2c(N)c1-c1ccccc1
- half-life: > 30 min

Structure (SMILES): Cc1ccc2oc3c(c(=O)c2c1)C(c1ccc(O)cc1)N(CCCN(C)C)C3=O (configuration not stated)
- half-life: > 30 min

Structure (SMILES): CCOC(=O)CCNc1cc(N2CCc3ccccc3CC2)nc(-c2cccnc2)n1
- half-life: 2.31 min

Structure (SMILES): CCOC(=O)c1ccc(N2C(=O)c3n[nH]c(-c4ccco4)c3C2c2ccc(C)cc2)cc1 (configuration not stated)
- half-life: 8.24 min

Structure (SMILES): Cc1cc(-c2nnc3n2CCCCC3)c(C)n1-c1ccccc1
- half-life: 3.27 min

Structure (SMILES): CC(=O)Nc1ccc(-c2csc(N3CCC(C(N)=O)CC3)n2)cc1
- half-life: > 30 min

Structure (SMILES): Nc1nc(N)c2c(OCC3CCN(Cc4ccccc4F)CC3)cccc2n1
- half-life: > 30 min

Structure (SMILES): N[C@@H](CSCc1ccccc1)C(=O)O
- half-life: > 30 min

Structure (SMILES): CC1=Nc2cc(C(=O)NCc3ccccc3Cl)ccc2Sc2c(C)ccc(C)c21
- half-life: 1.96 min

Structure (SMILES): O=c1c(-c2ccc(O)cc2)coc2cc(O)cc(O)c12
- half-life: > 30 min

Structure (SMILES): CC(C)(C)C1CCc2nc(NC(=O)c3cccc(Cl)c3)sc2C1 (configuration not stated)
- half-life: 20 min

Structure (SMILES): Fc1ccc(Nc2nc(-c3ccncc3Cl)nc3ccccc23)cc1F
- half-life: 19 min

Structure (SMILES): COc1cc(Cl)c(C)cc1NS(=O)(=O)c1c(C)nc2sccn2c1=O
- half-life: 1.53 min

Structure (SMILES): O=C1C(SCCO)=C(SCCO)C(=O)c2ccccc21
- half-life: > 30 min

Structure (SMILES): Cc1ccc(S(=O)(=O)Nc2cnccc2C(=O)Nc2ccc(-c3nn[nH]n3)cc2)cc1
- half-life: > 30 min

Structure (SMILES): Cc1sc2c(c1C)C(c1ccc(Cl)cc1)=N[C@@H](CC(=O)Nc1ccc(OCCOCCOCCOCCNc3cccc4c3C(=O)N(C3CCC(=O)NC3=O)C4=O)cc1)c1nnc(C)n1-2 (some centres not stated)
- half-life: 1.26 min

Structure (SMILES): CC(=O)Nc1ncc(S(=O)(=O)N2CCOCC2)s1
- half-life: > 30 min

Structure (SMILES): Cc1ccc(S(=O)(=O)Nc2ccc(Br)cc2C(=O)Nc2nc(-c3ccccc3)cs2)cc1
- half-life: 8.9 min

Structure (SMILES): COc1ccc(C(=O)CCN(C)C)cc1F
- half-life: 1.08 min

Structure (SMILES): N#Cc1cc(-c2nc(Nc3ccc(F)c(F)c3)c3ccccc3n2)ccn1
- half-life: > 30 min

Structure (SMILES): N#Cc1cccc(-c2nccc(-n3ccnc3)n2)c1
- half-life: 26 min

Structure (SMILES): Cc1cccc(-n2cnc3cc(C(=O)N4CCCC(C(F)(F)F)C4)ccc32)c1 (configuration not stated)
- half-life: 1.3 min

Structure (SMILES): Cc1ccc(-c2ccc(CNc3nc(-c4ccccc4C(C)C)ncc3C)cc2)cn1
- half-life: 4.28 min

Structure (SMILES): FC(F)(F)c1ccccc1-c1nc(NCc2cccc3ccccc23)c2ccccc2n1
- half-life: 4.33 min

Structure (SMILES): Cn1cc(Cl)c(C2N=C(Nc3nc4ccccc4o3)NC3=C2C(=O)CCC3)n1 (configuration not stated)
- half-life: 7.84 min

Structure (SMILES): Cc1ccnc(NC(=S)N2CCN(c3ncc(C(F)(F)F)cc3Cl)CC2)c1
- half-life: > 30 min

Structure (SMILES): Cc1ccc(NS(=O)(=O)c2ccc(C(=O)Nc3nc(-c4ccccc4)cs3)cc2)cc1
- half-life: 6.5 min

Structure (SMILES): NC(=O)C1CCN(c2nc(-c3ccc(N)cc3)cs2)CC1
- half-life: > 30 min
